Laboratory results as given in ChEMBL document CHEMBL4422610, “HDAC as onco target: Reviewing the synthetic approaches with SAR study of their inhibitors” (Eur J Med Chem, 2018).
Each block holds one compound with its values, some of them ahead of it.

Experiments:
[1] = biological target: T1, Histone deacetylase 1 (Homo sapiens, UniProt Q13547); assay: Inhibition of GST-tagged HDAC1 (unknown origin) expressed in insect cells using poly (Glu, Tyr) 4:1 as substrate measured after 15 mins in presence of [gamma-33P]ATP by Topcount method
T1 sequence (Q13547 whole entry): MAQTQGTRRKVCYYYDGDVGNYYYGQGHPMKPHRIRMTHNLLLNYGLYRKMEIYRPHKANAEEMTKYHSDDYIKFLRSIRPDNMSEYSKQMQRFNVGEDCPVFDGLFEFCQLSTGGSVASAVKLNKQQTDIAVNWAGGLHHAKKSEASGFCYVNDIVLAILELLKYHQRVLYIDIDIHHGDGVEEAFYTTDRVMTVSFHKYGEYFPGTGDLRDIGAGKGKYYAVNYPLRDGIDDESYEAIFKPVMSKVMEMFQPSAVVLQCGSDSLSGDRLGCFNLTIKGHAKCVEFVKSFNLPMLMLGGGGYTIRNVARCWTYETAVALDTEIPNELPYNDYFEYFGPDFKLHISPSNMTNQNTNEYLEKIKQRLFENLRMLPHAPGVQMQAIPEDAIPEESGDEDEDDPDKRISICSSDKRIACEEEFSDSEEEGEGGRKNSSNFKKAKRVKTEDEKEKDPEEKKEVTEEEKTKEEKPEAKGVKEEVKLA

[2] = biological target: T2, Protein deacetylase HDAC6 (Homo sapiens, UniProt Q9UBN7); assay: Inhibition of recombinant full-length human HDAC6 expressed in baculovirus expression system using FAM-RHKK(Ac)-H2 as substrate measured by electrophoretic mobility shift assay
T2 sequence (Q9UBN7 whole entry): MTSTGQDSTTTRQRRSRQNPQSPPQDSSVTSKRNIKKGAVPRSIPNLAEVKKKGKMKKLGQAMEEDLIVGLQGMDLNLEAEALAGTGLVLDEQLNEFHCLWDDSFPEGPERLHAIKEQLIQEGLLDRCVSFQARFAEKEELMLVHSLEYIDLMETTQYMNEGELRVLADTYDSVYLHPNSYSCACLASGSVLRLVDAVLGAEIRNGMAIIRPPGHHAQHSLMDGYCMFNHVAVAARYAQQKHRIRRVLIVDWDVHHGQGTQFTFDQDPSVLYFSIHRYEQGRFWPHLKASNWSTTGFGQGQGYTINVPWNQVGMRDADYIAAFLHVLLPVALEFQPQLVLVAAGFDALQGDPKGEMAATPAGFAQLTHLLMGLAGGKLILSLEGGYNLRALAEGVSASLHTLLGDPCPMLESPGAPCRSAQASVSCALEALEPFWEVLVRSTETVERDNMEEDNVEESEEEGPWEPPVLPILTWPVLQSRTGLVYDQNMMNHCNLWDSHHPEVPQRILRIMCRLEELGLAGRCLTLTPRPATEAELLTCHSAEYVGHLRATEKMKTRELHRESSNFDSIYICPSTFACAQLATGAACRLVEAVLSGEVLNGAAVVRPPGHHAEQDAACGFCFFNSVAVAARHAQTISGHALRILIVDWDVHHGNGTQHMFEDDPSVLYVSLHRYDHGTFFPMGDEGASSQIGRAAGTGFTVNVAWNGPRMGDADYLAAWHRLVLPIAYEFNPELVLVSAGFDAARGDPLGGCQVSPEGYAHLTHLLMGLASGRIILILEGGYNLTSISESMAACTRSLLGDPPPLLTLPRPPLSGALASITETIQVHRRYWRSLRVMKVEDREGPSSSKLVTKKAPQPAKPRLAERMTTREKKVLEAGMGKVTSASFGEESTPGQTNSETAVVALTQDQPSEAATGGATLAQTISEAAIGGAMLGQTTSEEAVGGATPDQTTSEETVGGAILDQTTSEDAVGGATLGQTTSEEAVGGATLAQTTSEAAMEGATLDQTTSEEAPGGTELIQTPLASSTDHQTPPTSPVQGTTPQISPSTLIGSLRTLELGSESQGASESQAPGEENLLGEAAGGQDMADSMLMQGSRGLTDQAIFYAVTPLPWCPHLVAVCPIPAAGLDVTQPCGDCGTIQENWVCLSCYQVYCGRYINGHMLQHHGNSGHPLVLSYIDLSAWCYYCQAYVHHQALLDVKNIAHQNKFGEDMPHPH

[3] = biological target: T1, Histone deacetylase 1; assay: Inhibition of HDAC1 (unknown origin) using Ac-peptide as substrate preincubated for 15 mins followed by substrate addition and measured after 60 mins by fluorescence assay
[4] = biological target: T1, Histone deacetylase 1; assay: Inhibition of human HDAC1 using fluorogenic HDAC substrate
[5] = biological target: Histone deacetylase 2 (Homo sapiens, UniProt Q92769); assay: Inhibition of human HDAC2 using fluorogenic HDAC substrate
Chain of Histone deacetylase 2 (Q92769 whole entry): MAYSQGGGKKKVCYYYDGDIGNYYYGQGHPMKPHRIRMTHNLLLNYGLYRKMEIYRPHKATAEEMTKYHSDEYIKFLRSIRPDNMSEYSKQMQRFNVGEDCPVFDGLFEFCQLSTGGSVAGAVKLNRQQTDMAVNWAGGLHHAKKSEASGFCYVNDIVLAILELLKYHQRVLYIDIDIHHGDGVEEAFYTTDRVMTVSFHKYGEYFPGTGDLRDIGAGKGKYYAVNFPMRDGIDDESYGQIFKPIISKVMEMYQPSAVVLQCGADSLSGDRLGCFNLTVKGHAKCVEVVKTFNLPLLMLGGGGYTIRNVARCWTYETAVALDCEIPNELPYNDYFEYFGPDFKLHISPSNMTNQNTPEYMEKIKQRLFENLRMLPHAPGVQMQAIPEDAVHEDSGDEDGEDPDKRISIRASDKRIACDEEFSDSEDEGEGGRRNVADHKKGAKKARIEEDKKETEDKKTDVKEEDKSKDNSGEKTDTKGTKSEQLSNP

[6] = biological target: Histone deacetylase 3 (Homo sapiens, UniProt O15379); assay: Inhibition of human HDAC3 using fluorogenic HDAC substrate
Chain of Histone deacetylase 3 (O15379 whole entry): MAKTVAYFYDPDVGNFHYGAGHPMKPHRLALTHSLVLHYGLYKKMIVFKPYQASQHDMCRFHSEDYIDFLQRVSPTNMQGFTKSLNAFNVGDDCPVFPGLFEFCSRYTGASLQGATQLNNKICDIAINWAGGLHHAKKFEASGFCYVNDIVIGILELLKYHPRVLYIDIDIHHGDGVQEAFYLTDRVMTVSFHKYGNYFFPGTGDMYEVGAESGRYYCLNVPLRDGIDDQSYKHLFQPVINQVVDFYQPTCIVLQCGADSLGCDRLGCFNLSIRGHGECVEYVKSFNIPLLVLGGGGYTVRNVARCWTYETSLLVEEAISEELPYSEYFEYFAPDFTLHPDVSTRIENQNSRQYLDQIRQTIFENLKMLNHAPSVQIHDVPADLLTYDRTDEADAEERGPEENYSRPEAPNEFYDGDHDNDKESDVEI

[7] = biological target: Histone deacetylase 4 (Homo sapiens, UniProt P56524); assay: Inhibition of human HDAC4 using fluorogenic HDAC substrate
Chain of Histone deacetylase 4 (P56524 whole entry): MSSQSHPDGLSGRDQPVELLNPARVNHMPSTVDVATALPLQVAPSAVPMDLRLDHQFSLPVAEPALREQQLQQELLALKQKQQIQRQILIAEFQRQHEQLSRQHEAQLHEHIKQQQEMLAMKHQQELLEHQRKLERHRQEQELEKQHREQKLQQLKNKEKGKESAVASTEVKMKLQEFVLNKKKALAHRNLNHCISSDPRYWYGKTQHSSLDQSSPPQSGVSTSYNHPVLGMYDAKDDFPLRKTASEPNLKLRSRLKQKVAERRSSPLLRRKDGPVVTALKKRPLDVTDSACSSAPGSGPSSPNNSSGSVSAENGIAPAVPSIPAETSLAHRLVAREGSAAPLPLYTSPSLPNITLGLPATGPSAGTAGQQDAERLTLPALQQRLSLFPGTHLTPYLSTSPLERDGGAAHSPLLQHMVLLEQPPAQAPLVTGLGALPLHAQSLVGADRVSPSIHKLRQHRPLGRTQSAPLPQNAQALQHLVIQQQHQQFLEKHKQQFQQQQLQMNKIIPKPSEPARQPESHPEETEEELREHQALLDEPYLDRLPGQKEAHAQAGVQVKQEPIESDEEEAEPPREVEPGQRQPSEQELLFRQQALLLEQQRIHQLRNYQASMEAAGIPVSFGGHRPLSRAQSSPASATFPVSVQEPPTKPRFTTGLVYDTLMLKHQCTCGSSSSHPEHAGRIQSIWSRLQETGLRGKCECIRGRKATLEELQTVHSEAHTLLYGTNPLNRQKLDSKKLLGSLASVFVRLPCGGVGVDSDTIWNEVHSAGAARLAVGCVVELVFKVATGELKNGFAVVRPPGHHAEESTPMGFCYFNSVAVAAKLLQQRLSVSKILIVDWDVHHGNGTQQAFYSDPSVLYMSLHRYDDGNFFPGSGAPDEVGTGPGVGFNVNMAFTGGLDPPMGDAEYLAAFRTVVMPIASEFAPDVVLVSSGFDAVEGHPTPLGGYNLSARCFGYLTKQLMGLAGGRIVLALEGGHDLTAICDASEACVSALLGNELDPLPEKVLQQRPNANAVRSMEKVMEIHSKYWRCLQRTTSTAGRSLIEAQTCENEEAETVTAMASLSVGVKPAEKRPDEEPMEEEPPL

[8] = biological target: Histone deacetylase 5 (Homo sapiens, UniProt Q9UQL6); assay: Inhibition of human HDAC5 using fluorogenic HDAC substrate
Chain of Histone deacetylase 5 (Q9UQL6 whole entry): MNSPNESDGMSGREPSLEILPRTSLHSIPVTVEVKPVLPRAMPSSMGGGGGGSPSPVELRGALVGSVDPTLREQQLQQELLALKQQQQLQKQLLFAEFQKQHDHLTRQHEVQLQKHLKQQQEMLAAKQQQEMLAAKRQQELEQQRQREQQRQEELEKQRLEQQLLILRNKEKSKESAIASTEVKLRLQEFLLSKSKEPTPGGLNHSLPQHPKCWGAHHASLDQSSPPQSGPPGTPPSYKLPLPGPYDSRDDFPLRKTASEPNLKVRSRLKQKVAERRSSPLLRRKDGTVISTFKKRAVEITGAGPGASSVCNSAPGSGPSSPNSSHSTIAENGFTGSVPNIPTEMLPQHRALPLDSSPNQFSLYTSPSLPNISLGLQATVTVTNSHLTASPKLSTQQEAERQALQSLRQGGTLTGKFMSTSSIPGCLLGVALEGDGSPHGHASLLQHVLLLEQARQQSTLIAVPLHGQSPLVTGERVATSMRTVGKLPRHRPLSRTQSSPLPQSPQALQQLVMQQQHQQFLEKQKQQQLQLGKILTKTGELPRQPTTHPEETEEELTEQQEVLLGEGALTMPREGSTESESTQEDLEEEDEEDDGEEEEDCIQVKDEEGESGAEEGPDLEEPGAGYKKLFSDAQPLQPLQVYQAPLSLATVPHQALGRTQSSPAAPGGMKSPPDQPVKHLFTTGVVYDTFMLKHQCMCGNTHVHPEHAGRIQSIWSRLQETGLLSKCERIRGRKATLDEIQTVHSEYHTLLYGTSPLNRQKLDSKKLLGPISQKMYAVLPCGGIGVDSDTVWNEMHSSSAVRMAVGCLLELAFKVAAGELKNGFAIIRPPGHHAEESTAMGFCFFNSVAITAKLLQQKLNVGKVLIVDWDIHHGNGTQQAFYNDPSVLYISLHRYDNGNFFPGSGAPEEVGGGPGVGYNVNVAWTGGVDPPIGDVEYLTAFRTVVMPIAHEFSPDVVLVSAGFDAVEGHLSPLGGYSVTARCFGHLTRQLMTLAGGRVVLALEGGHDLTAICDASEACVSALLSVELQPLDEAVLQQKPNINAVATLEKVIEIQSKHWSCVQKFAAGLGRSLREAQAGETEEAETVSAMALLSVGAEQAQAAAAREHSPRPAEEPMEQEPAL

[9] = biological target: T2, Protein deacetylase HDAC6; assay: Inhibition of human HDAC6 using fluorogenic HDAC substrate
[10] = biological target: T3, Histone deacetylase 8 (Homo sapiens, UniProt Q9BY41); assay: Inhibition of human HDAC8 using fluorogenic HDAC substrate
T3 sequence (Q9BY41 whole entry): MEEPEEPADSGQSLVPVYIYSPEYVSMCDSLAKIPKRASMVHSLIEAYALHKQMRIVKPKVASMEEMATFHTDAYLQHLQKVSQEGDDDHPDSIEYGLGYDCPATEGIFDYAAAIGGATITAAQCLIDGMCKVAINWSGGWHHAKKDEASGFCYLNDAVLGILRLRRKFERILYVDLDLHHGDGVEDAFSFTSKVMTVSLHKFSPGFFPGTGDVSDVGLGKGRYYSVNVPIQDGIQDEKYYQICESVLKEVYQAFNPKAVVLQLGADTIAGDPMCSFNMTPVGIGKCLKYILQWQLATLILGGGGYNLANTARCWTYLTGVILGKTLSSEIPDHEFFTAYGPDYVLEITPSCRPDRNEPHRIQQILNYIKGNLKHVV

[11] = biological target: Histone deacetylase 9 (Homo sapiens, UniProt Q9UKV0); assay: Inhibition of human HDAC9 using fluorogenic HDAC substrate
Chain of Histone deacetylase 9 (Q9UKV0 whole entry): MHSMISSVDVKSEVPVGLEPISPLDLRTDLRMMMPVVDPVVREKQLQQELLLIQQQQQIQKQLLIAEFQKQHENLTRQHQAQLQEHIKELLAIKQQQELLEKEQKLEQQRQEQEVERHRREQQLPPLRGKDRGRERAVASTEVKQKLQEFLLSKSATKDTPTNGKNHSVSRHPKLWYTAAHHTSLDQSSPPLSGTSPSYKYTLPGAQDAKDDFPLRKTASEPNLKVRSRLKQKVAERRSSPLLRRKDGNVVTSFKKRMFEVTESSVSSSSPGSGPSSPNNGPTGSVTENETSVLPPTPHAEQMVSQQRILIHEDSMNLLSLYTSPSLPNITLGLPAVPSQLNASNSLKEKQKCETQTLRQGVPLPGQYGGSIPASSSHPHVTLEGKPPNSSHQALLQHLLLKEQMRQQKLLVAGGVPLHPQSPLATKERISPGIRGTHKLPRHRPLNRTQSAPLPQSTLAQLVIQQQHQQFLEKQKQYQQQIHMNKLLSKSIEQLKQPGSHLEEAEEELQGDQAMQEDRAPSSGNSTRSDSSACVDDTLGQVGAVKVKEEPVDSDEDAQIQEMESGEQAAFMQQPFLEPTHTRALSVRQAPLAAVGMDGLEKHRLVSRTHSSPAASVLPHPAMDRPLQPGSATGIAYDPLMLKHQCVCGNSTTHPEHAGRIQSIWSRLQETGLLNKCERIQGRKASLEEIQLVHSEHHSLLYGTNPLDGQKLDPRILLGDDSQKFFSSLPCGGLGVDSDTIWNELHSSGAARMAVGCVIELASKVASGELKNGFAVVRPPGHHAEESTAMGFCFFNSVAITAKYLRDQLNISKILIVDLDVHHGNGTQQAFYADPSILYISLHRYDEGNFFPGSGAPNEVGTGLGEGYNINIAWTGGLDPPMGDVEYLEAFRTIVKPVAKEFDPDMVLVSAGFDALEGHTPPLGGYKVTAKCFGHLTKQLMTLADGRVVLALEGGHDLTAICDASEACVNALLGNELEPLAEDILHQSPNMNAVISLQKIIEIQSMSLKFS

[12] = biological target: T4, Polyamine deacetylase HDAC10 (Homo sapiens, UniProt Q969S8); assay: Inhibition of human HDAC10 using fluorogenic HDAC substrate
T4 sequence (Q969S8 whole entry): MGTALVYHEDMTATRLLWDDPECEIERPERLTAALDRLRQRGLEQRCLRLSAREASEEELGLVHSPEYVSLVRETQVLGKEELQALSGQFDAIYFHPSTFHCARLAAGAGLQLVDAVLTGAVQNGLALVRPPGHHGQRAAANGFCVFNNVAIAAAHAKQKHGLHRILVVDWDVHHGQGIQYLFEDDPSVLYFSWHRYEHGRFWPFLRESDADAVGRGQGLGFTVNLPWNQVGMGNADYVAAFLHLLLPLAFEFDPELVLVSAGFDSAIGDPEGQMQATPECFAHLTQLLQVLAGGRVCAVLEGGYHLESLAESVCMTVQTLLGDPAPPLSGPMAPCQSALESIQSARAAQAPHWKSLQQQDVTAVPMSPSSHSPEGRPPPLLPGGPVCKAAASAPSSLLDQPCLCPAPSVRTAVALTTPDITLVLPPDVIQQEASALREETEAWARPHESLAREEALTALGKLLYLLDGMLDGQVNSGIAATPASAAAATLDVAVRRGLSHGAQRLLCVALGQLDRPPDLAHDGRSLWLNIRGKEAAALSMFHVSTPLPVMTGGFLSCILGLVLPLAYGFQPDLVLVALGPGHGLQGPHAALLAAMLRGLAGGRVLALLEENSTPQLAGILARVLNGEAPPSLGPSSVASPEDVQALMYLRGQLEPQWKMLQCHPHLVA

[13] = biological target: T5, Histone deacetylase 11 (Homo sapiens, UniProt Q96DB2); assay: Inhibition of human HDAC11 using fluorogenic HDAC substrate
T5 sequence (Q96DB2 whole entry): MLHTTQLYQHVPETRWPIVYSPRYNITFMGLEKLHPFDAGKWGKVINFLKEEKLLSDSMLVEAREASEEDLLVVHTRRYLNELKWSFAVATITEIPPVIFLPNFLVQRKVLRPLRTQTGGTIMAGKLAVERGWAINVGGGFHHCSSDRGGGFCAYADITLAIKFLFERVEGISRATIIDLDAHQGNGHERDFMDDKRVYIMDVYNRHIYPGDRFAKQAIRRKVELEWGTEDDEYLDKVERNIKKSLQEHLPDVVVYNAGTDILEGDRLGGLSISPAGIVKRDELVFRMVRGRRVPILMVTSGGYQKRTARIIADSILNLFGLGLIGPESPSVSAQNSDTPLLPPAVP

[14] = system: Zea mays; assay: Inhibition of maize HD2 at 5 uM using [3H]acetate-labelled histone as substrate by liquid scintillation counting method relative to control

- IC50 [1]: 0.6 nM
SMILES: Cc1nn2ccccc2c1CCN1CCCC1c1ccc(/C=C/C(=O)NO)cc1 (stereo unspecified)

- IC50 [2]: 100 to 500 nM
SMILES: O=C(NO)c1ccc2c(c1)CC1(CC2)CCN(Cc2ccccc2OC(F)(F)F)C1=O (stereo unspecified)

- IC50 [3]: 350 nM
SMILES: COc1ccccc1N1C(=O)CSC1c1cccc(NC(=O)CCC(=O)NO)c1 (stereo unspecified)

- IC50 [2]: ≤ 100 nM
SMILES: O=C(NO)c1ccc2c(c1)CC1(CC2)CCN(Cc2ccc(OC(F)(F)F)cc2)C1=O (stereo unspecified)

- IC50 [3]: 50 nM
SMILES: O=C(CCCCCCOc1ccccc1N1C(=O)CSC1c1cccc(Br)c1)NO (stereo unspecified)

- IC50 [3]: 530 nM
SMILES: O=C(CCCCOc1ccccc1N1C(=O)CSC1c1cccc(Br)c1)NO (stereo unspecified)

- IC50 [3]: 17 nM
SMILES: COc1ccccc1N1C(=O)CSC1c1cccc(NC(=O)CCCCCC(=O)NO)c1 (stereo unspecified)

- IC50 [4]: 8100 nM
- IC50 [5]: 24000 nM
- IC50 [6]: 24000 nM
- IC50 [7]: > 30000 nM
- IC50 [8]: 9100 nM
- IC50 [9]: 8 nM
- IC50 [10]: 1100 nM
- IC50 [11]: 13000 nM
- IC50 [12]: 10000 nM
- IC50 [13]: 2400 nM
SMILES: O=C(NO)c1ccc(CN2c3ccccc3CCC[C@@H]3CCCC[C@H]32)cc1

- inhibition [14]: 45%
SMILES: Cn1cc(C(=O)c2ccccc2)cc1CCC(=O)NO

- IC50 [4]: 8800 nM
- IC50 [5]: 16000 nM
- IC50 [6]: 18000 nM
- IC50 [8]: 22000 nM
- IC50 [9]: 11 nM
- IC50 [10]: 2000 nM
- IC50 [11]: > 30000 nM
- IC50 [12]: 9400 nM
- IC50 [13]: 820 nM
SMILES: O=C(NO)c1ccc(CN2c3cc(C(F)(F)F)ccc3CCC[C@@H]3CCCC[C@H]32)cc1

- IC50 [3]: 37 nM
SMILES: COc1ccccc1N1C(=O)CSC1c1cccc(C(=O)NCCCCCC(=O)NO)c1 (stereo unspecified)

- IC50 [1]: 0.8 nM
SMILES: CCc1n[nH]c(CC)c1CCN1CCCC1c1ccc(/C=C/C(=O)NO)cc1 (stereo unspecified)

- IC50 [1]: 6 nM
SMILES: Cc1[nH]c2ccccc2c1C1CCCN(Cc2ccc(/C=C/C(=O)NO)cc2)C1 (stereo unspecified)

- IC50 [3]: 52 nM
SMILES: O=C(CCCCCCC(=O)Nc1ccccc1N1C(=O)CSC1c1cccc(Br)c1)NO (stereo unspecified)

- IC50 [3]: 73 nM
SMILES: O=C(CCCOc1ccccc1N1C(=O)CSC1c1ccc(Br)s1)NO (stereo unspecified)

- inhibition [14]: 86%
SMILES: Cn1cc(C(=O)c2ccccc2)cc1/C=C/C(=O)NO

- IC50 [1]: 6 nM
SMILES: CC(C)c1[nH]c2ccccc2c1C1CCCN(Cc2ccc(/C=C/C(=O)NO)cc2)C1 (stereo unspecified)

- IC50 [2]: > 500 nM
SMILES: O=C(NO)c1ccc2c(c1)CC1(CC2)CCN(Cc2ccncc2)C1=O (stereo unspecified)

- inhibition [14]: 87%
SMILES: Cn1cc(C(=O)c2ccc(Cl)cc2)cc1/C=C/C(=O)NO
